One data set concerns subjects and patients. To be noted: over 400 subjects and patients; cited from earlier work.
In data set [1] the test system is patients with CAD and LDL-C≧130 mg/dL. To be noted: atorvastatin 80 mg.
Description: This is an 18-month, open-label, randomized, multicenter study in 341 patients with elevated LDL-C (≧130 mg/dL whether or not they are receiving lipid-lowering medication) who have had angiography. […] Patients must be Class I or II based on the Canadian Cardiovascular Society classification of angina severity, and must be able to complete 4 minutes of a Bruce protocol treadmill test, or a 20-W/min supine bicycle exercise test.
The study is conducted in patients with LDL-C≧130 mg/dL and TG≦400 mg/dL who have asymptomatic or mildly to moderately symptomatic CAD (with or without antianginal therapy) and in whom a recanalization procedure is recommended. “Usual care” represents a heterogeneous mix of therapies that may include calcium channel blocker use or lipid-lowering therapy (including diet, behavior modification or antihyperlipidemic medication). Patients who have undergone angiography, or are about to undergo angiography, will be considered for this study based on the results of the angiogram and other inclusion criteria. The study will be performed using a common protocol at all study sites. […]
All patients will be randomized to either Group 1 or Group 2 according to a randomization code. […] Usual care will be determined by the investigator or the patient's primary physician (or whoever typically decides the patient's follow-up care) as he or she sees fit. […]
For data set [2], the system named is cholesterol-fed male New Zealand White rabbits. To be noted: 8 weeks, compared to progression controls; cited from earlier work.
Data set [3] deals with hypercholesterolemic patients. To be noted: 2.5 to 80 mg/day, 6 weeks; cited from earlier work.

This is an account of results in patent US20080119561A1, “METHODS FOR PREVENTING OR DELAYING CATHETER- BASED RESVASCULARIZATION” (Pfizer Inc, priority 1998, published 2008).

`CC(C)c1c(C(=O)Nc2ccccc2)c(-c2ccccc2)c(-c2ccc(F)cc2)n1CC[C@@H](O)C[C@@H](O)CC(=O)O` [atorvastatin]: the “most frequently occurring adverse events” value in the data set on subjects and patients is “headache, infection (mostly colds), constipation, and back pain”. For the same compound, the “patients who encountered an adverse heart event” value in data set [1] (over 18 months, angioplasty group 21%) was determined as 13%. The “LDL cholesterol on treatment, average” value in data set [1] (from 140 mg/dL before treatment) was 77 mg/dL. Also, in data set [2], the “percentage of discernible thoracic aortic lesions” value is listed as “reduced”; the “reduction of extracellular matrix and smooth muscle cell area” value was 63%; the “reduction of size of iliac-femoral lesions” value is given as “approximately 68%”. In data set [3], the “HDL-C, apolipoprotein AI (apo AI) or Lp (a)” value is reported as “No significant changes”; the “apolipoprotein B (apo B)” value is on record as “significantly reduced”; the “drug-related serious adverse events” value is “no drug-related serious adverse events”; the “reduction of TG levels” value was “up to 32%”. Also, in data set [3], the total cholesterol result is “significantly reduced”.
